# According to patent US20250161287A1, “METHODS, COMPOSITIONS, AND COMBINATIONS FOR PREVENTING OR TREATING CANCER RECURRENCE” (VUJA DE SCIENCES, INC., priority 2022, published 2025):
# Entries after “also recorded” stand apart in the source; their conditions may differ. Like-named read-outs stand apart in the source and are kept apart here.
# Assays:
# K7M2 OS cell line [1] = assay: 2D growth / cytotoxicity by MTT, K7M2; format: cell-based, mouse; conditions: for non-cytotoxic drug exposures in 2D: K7M2, MTT 72 h, 10 pM-100 μM
# Protocol: The number of viable cells present in 2D culture was determined by MTT as previously reported. Briefly, cells were plated in 96-well plates at 2,000 cells/well and incubated at 37° C. for 24 h. […] After 72 h, MTT reagent (20 L/well of a 5 mg/mL stock solution in sterile water; Sigma, St. Louis, MO) was added to each well and the plate was incubated at 37° C. for 2 h. DMSO ([…]) was then added to each well to solubilize the formazan crystals.
# (§1) The resulting absorbance was measured at 490 nm via plate reader (Molecular Devices, San Jose, CA). DMSO (0.1%) was used as vehicle control, while 20 μM rapamycin was used as a positive cell-kill control. The experimental conditions were conducted in triplicate and each experiment was repeated three times. Regression lines and IC50's were calculated using a four-parameter variable slope nonlinear fit in GraphPad Prism.
# MG63.3 OS cell line [2] = assay: in vitro 3D BME assay with MG63.3 OS cell line; format: cell-based, human; conditions: for minimal effective concentration: vs vehicle control, replicates=4, read-out: lowest dose leading to appreciable inhibition of 3D growth; for activity on 3D BME compared with 2D: MG63.3, 3D BME vs 2D MTT 72 h; for earlier (2 days on, 4 days off) vs later (2 days off, 4 days on) treatment: MG63.3 3D BME
# Text: (§2) 3D basement membrane extract (BME) assay was developed at the NCI Barkan (D. Barkan et al. 2008; Dalit Barkan and Green 2011; Hen and Barkan 2020). BME is purified from Engelbreth-Holm-Swarm (EHS) tumor, primarily made up of laminin, collagen IV, entactin, and heparin sulfate proteoglycans (Cultrex Reduced Growth Factor Basement Membrane Extract, PathClear n.d.), which allows it to more accurately reflect the 3D extracellular environment in the body.
# (§3) Initially >150 selected therapeutic agents were tested on BME based on the likelihood for either a positive effect or a […] negative effect (as negative controls). […] These therapeutic agents were also tested in dose response (as broad as 1 pM-100 μM) for 2D cytotoxicity (MTT) and the IC50 was calculated. Where required, the hits from the initial screen were also further characterized at additional doses <100 nM in order to further determine the relative selectivity compared to the 2D IC50.
# (§4) The influence of drug exposure on the metastatic phenotype was assessed in an in vitro assay of ME and escape from dormancy using a 3D BME assay as previously reported, which was adapted for use with OS cells.
# (§5) Cultrex® PathClear, Reduced Growth Factor Basement Membrane Extract (BME—Bio-Techne, Minneapolis, MN) was added ([…]) to a 96-well plate and allowed to gel by incubating at 37° C. for ≥30 min. Cells were harvested, washed with DMEM (no glucose, no FBS, Gibco, Grand Island, NY) and centrifuged at 1500 g×5 mins. The media was aspirated and the remaining cell pellet flicked for about 10 s to ensure disaggregation.
# (§6) Cells were diluted in assay media containing 2% BME, resuspended vigorously and 150 μL of the cell suspension was added on top of the gelled 3D BME layer. […] Cell numbers were determined in control vehicle (cells in media+0.1% DMSO), or treated wells and were measured on the indicated days by addition of 20 μL/well of MTS reagent (Cell Titer 96 Aqueous One, Promega, Madison, WI), followed by incubation at 37° C. for 2 h and absorbance measurements at 490 nm via plate reader (Molecular Devices, San Jose CA).
# (§7) All conditions were conducted in quadruplicate and each experiment was carried out at least 3 separate times. All comparisons were made between treatment and vehicle control at concordant time points. Statistical analyses and non-linear regressions were derived using GraphPad Prism statistical software.
# MG63.3 OS cell line [3] = assay: 2D growth / cytotoxicity by MTT, MG63.3; conditions: for doses exhibiting cytotoxicity on 2D growth: human, 72 h
# Protocol: The number of viable cells present in 2D culture was determined by MTT as previously reported. Briefly, cells were plated in 96-well plates at 2,000 cells/well and incubated at 37° C. for 24 h. After 24 h, the media was replaced with fresh media containing drugs at the desired concentrations (10 pM-10 μM) and incubated at 37° C. for 72 h. After 72 h, MTT reagent (20 L/well of a 5 mg/mL stock solution in sterile water; Sigma, St. Louis, MO) was added to each well and the plate was incubated at 37° C. for 2 h. DMSO ([…]) was then added to each well to solubilize the formazan crystals.
# as §1
# MG63.3 human OS cells = assay: PuMA (ex vivo Pulmonary Metastasis Assay) with MG63.3; format: cell-based; conditions: single agents, two doses: 100 nM and 1 μM (rapamycin 100 nM and 1 pM [sic]; AZD8055 10 and 100 nM), replicates=3-5
# Protocol: FIG. 23A is a schematic illustrating the metastatic progression of GFP-expressing OS cells conducted by injecting single cells via tail vein injection, followed by lung excision and insufflation 15 mins post-injection. The formation of multicellular colonies in the mouse lung microenvironment can be assessed 14-21 days post-injection.
# Dissected lungs are then sectioned and grown on sponges.
# MG63.3 OS cells = assay: in vitro SISGel assay with highly metastatic MG63.3 OS cells; format: cell-based, human; conditions: for lowest dose leading to appreciable inhibition of 3D growth: MG63.3 on SISGel, vs vehicle control, replicates=4; for activity on 3D SISGel compared with 2D: MG63.3, SISGel vs 2D MTT 72 h
# Text: SISGel is comprised of porcine small intestine submucosa gel that was originally developed at Oklahoma State U., by R. Hurst (CSO) and M. Ihnat (Consultant) (Bailey-Downs et al. 2014; Hurst et al. 2013, 2015, 2016). Unlike BME which is derived from a tumor-based matrix, SISGel is derived from healthy stroma and provides a suppressive “normal” ECM. […] Conditions have been identified that promoted suppressed ME-type profile (FIG. 2A). […] In addition to SISGel's complementarity to the BME assay, it can also be conducted in a 96-well format, enabling a high-throughput system to model suppressed/dormant cancer cells to further validate the screening results in BME.
# [4] = given alone at 2 mg/day, cited from earlier work
# K7M2 OS cell line [5] = assay: in vitro 3D BME assay with K7M2 OS cell line; format: cell-based, mouse
# Text: as §2, §3, §4, §5, §6, §7
# [6] = Homo sapiens, MG-63.3, MG63.3 on 3D BME
# [7] = domatinostat 100-200 nM, MG63.3
smiles,measurement,setting,value
CN1CCN(CCOc2cc(OC3CCOCC3)c3c(Nc4c(Cl)ccc5c4OCO5)ncnc3c2)CC1 [saracatinib],non-cytotoxic drug exposures in 2D,K7M2 OS cell line [1],below 1 μM
COc1ccc(-c2ccc3c(N4CCOC[C@@H]4C)nc(N4CCOC[C@@H]4C)nc3n2)cc1CO [AZD8055],minimal effective concentration,MG63.3 OS cell line [2]; [6],0.1 µM
same,activity on 3D BME compared with 2D,MG63.3 OS cell line [2],much stronger activity on 3D BME at slightly lower doses
same,doses exhibiting cytotoxicity on 2D growth,MG63.3 OS cell line [3],> 100 nM
same,inhibition of ME (loss of GFP signal in the lung tissue),MG63.3 human OS cells,strong inhibition of ME
CO[C@H]1C[C@@H]2CC[C@@H](C)[C@@](O)(O2)C(=O)C(=O)N2CCCC[C@H]2C(=O)O[C@H]([C@H](C)C[C@@H]2CC[C@@H](O)[C@H](OC)C2)CC(=O)[C@H](C)/C=C(\C)[C@@H](O)[C@@H](OC)C(=O)[C@H](C)C[C@H](C)/C=C/C=C/C=C/1C [rapamycin],minimal effective concentration,MG63.3 OS cell line [2]; MG63.3 on 3D BME,0.0005 µM
same,lowest dose leading to appreciable inhibition of 3D growth,MG63.3 OS cells,1000 pM
same,doses leading to significant cytotoxicity on 2D growth,"K7M2 OS cell line [1]; K7M2, MTT, 72 h, tested 15 nM-100 μM",≥ 10 PM
same,whole blood trough concentration mean,[4]; months 4 through 12,19 ng/mL
same,whole blood trough concentration range,[4]; months 4 through 12,14 to 22 ng/mL
same,whole blood trough concentration mean,[4]; year 3,16 ng/mL
same,whole blood trough concentration range,[4]; year 3,11 to 22 ng/mL
CO[C@H]1C[C@@H]2CC[C@@H](C)[C@@](O)(O2)C(=O)C(=O)N2CCCC[C@H]2C(=O)O[C@H]([C@H](C)C[C@@H]2CC[C@@H](OC(=O)C(C)(CO)CO)[C@H](OC)C2)CC(=O)[C@H](C)/C=C(\C)[C@@H](O)[C@@H](OC)C(=O)[C@H](C)C[C@H](C)/C=C/C=C/C=C/1C [temsirolimus],minimal effective concentration,MG63.3 OS cell line [2]; [6],0.001 µM
same,activity on 3D BME compared with 2D,MG63.3 OS cell line [2],much stronger activity on 3D BME at significantly lower doses
same,activity on 3D SISGel compared with 2D,MG63.3 OS cells,much stronger activity on 3D SISGel at significantly lower doses
same,lowest dose leading to appreciable inhibition of 3D growth,MG63.3 OS cells,1 pM
same,inhibition of ME (loss of GFP signal in the lung tissue),MG63.3 human OS cells,strong inhibition of ME
CNC(=O)c1cc(Oc2ccc(NC(=O)Nc3ccc(Cl)c(C(F)(F)F)c3)c(F)c2)ccn1 [regorafenib],inhibition at 1 µM,"MG63.3 OS cell line [2]; Homo sapiens, MG-63.3, 144 h, MG63.3, Day 6 growth by MTS, P<0.005",~20%
same,effect on metastatic phenotype / 3D growth in 3D BME (words),"MG63.3 OS cell line [2]; MG63.3, Day 6 MTS, at or below 1 μM",consistently inhibit 3D growth across both cell lines
same,inhibition in 3D BME at 100 nM,"MG63.3 OS cell line [2]; MG63.3, Day 6 growth by MTS",Significant inhibition was not seen
same,effect on cell number in 2D monolayer,"MG63.3 OS cell line [3]; MG63.3, MTT, exposures up to 1 μM / assessed exposures",no effect on remaining cell number
same,effect on metastatic phenotype / 3D growth in 3D BME (words),"K7M2 OS cell line [5]; K7M2, Day 6 MTS, at or below 1 μM",consistently inhibit 3D growth across both cell lines
same,inhibition in 3D BME at 100 nM,"K7M2 OS cell line [5]; K7M2, Day 6 growth by MTS",Significant inhibition was not seen
same,inhibition at 1 µM,"K7M2 OS cell line [5]; Mus musculus, 144 h, K7M2, Day 6 growth by MTS, P<0.005",~20%
same,non-cytotoxic drug exposures in 2D,K7M2 OS cell line [1],below 1 μM
CO[C@H]1C[C@@H]2CC[C@@H](C)[C@@](O)(O2)C(=O)C(=O)N2CCCC[C@H]2C(=O)O[C@H]([C@H](C)C[C@@H]2CC[C@@H](OP(C)(C)=O)[C@H](OC)C2)CC(=O)[C@H](C)/C=C(\C)[C@@H](O)[C@@H](OC)C(=O)[C@H](C)C[C@H](C)/C=C/C=C/C=C/1C [ridaforolimus],minimal effective concentration,MG63.3 OS cell line [2]; [6],0.001 µM
same,activity on 3D BME compared with 2D,MG63.3 OS cell line [2],much stronger activity on 3D BME at significantly lower doses
same,doses exhibiting cytotoxicity on 2D growth,MG63.3 OS cell line [3],> 33000 nM
same,activity on 3D SISGel compared with 2D,MG63.3 OS cells,much stronger activity on 3D SISGel at significantly lower doses
same,lowest dose leading to appreciable inhibition of 3D growth,MG63.3 OS cells,100 pM
same,inhibition of ME (loss of GFP signal in the lung tissue),MG63.3 human OS cells,strong inhibition of ME
Cn1cc(-c2ccc(S(=O)(=O)n3ccc(/C=C/C(=O)Nc4ccccc4N)c3)cc2)cn1 [domatinostat],"earlier (2 days on, 4 days off) vs later (2 days off, 4 days on) treatment","MG63.3 OS cell line [2]; FIG. 68, rapamycin 2-16 nM experiment",slightly more inhibition than later treatment
same,minimal effective concentration,MG63.3 OS cell line [2]; [6],0.1 µM
same,activity on 3D BME compared with 2D,MG63.3 OS cell line [2],much stronger activity on 3D BME at similar doses; also recorded: more active in 3D than in 2D
same,3D activity and selectivity for ME in a screen of 10 HDAC inhibitors,"MG63.3 OS cell line [2]; MG63.3, selectivity = ratio of 3D to 2D % inhibition at the same dose, Class I, Class II, pan-HDAC",highest 3D activity and selectivity for ME
same,efficacy of domatinostat alone treated for 1 day,"MG63.3 OS cell line [2]; domatinostat 100-200 nM, 1 day on, 5 days off",little to no efficacy
same,growth inhibition in the 3D BME assay,MG63.3 OS cell line [2]; [7],20-50%
same,"inhibition of 3D growth relative to vehicle, two schedules","MG63.3 OS cell line [2]; domatinostat 200-800 nM, Days 3-6 (2 days off, 4 days on) or Days 1-2 (2 days on, 4 days off), P<0.005",significantly inhibition relative to vehicle for both treatment schedules
same,"earlier (2 days on, 4 days off) vs later (2 days off, 4 days on) treatment",MG63.3 OS cell line [2]; domatinostat 200-800 nM,slightly more inhibition than later treatment
same,"re-treatment on Day 3 vs treated once, inhibition of 3D growth","MG63.3 OS cell line [2]; rapamycin 1 nM, domatinostat 100 & 150 nM, combination, P<0.01 for all except 100 nM domatinostat alone",significantly increased inhibition relative to the conditions only treated with drug once
same,inhibition in 2D at these doses,MG63.3 OS cell line [3]; [7],no statistically significant inhibition
same,doses exhibiting cytotoxicity on 2D growth,MG63.3 OS cell line [3],≥ 200 nM
CNC(=O)c1cccc(-c2ccc3c(N4CCOC[C@@H]4C)nc(N4CCOC[C@@H]4C)nc3n2)c1 [vistusertib],minimal effective concentration,MG63.3 OS cell line [2]; [6],0.1 µM
same,activity on 3D BME compared with 2D,MG63.3 OS cell line [2],slightly stronger activity on 3D BME at 100 nM
same,doses exhibiting cytotoxicity on 2D growth,MG63.3 OS cell line [3],> 0.64 nM
CO[C@H]1C[C@@H]2CC[C@@H](C)[C@@](O)(O2)C(=O)C(=O)N2CCCC[C@H]2C(=O)O[C@H]([C@H](C)C[C@@H]2CC[C@@H](OCCO)[C@H](OC)C2)CC(=O)[C@H](C)/C=C(\C)[C@@H](O)[C@@H](OC)C(=O)[C@H](C)C[C@H](C)/C=C/C=C/C=C/1C [everolimus],minimal effective concentration,MG63.3 OS cell line [2]; [6],0.01 µM
same,activity on 3D BME compared with 2D,MG63.3 OS cell line [2],much stronger activity on 3D BME at similar doses
same,cytotoxicity on 2D growth,MG63.3 OS cell line [3],cytotoxicity across all doses tested
